Test systems include A498 renal; HOP-62 NSCLC; MALME-3M melanoma; MDA-MB-231 breast; MDA-MB-435; SF-268 CNS; SK-MEL-28 melanoma; UO-31 renal.
Common to all, as to experiment: inhibition of tumour cell growth, NCI panel, 48 h

Values joined by “and” are separate entries in the source; they are usually repeats but may differ in a detail not shown here. Equal values may be shown once.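 Cultured in 96-well plates, cells were exposed to test compound for 48 hours across five concentrations. GI50: concentration for 50% inhibition of growth. TGI: total growth inhibition.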

In PubChem BioAssay (NCI) one finds GI50 and TGI data, which are given here for 16 molecules.

As to `O=c1cc(-c2cccc3c2Sc2ccccc2S3)oc(N2CCOCC2)c1`, the GI50 in the assay on A498 renal is 0.323 µM; in the assay on HOP-62 NSCLC it was 10.9 µM; in the assay with MALME-3M melanoma it was 8.81 µM; with MDA-MB-231 breast, 11.8 µM; in the assay with MDA-MB-435, 3.54 µM; in the assay on SF-268 CNS, 7.76 µM. Moreover, the GI50 in the assay with SK-MEL-28 melanoma was 11.1 µM; with UO-31 renal, 1.79 µM. Besides, the TGI was found to be 3.79 µM in the assay on A498 renal; 23 µM in the assay on HOP-62 NSCLC; 24.4 µM in the assay on MALME-3M melanoma; 29.5 µM with MDA-MB-231 breast; 13.5 µM in the assay on MDA-MB-435; 24.2 µM in the assay with SF-268 CNS. The values for the TGI in the assay on SK-MEL-28 melanoma and with UO-31 renal were 24.1 µM and 15.8 µM, respectively.
As for `Cc1csc(/C=C/C(=O)c2nnn(-c3ccnc4c(C(F)(F)F)cccc34)c2C)c1`, the GI50 in the assay with A498 renal is more than 100 µM; in the assay on HOP-62 NSCLC, more than 100 µM; in the assay with MALME-3M melanoma it was more than 100 µM; in the assay on MDA-MB-231 breast, 29.2 µM; with MDA-MB-435, 56.9 µM; with SF-268 CNS, 25.8 µM. Besides, the values for the GI50 with SK-MEL-28 melanoma and with UO-31 renal were 71.1 µM and 94.4 µM, respectively. In addition, the TGI in the assay on A498 renal, with HOP-62 NSCLC, in the assay on MALME-3M melanoma, with MDA-MB-231 breast, with MDA-MB-435 and in the assay with SF-268 CNS was more than 100 µM each time. Besides, the TGI in the assay with SK-MEL-28 melanoma and with UO-31 renal was more than 100 µM in each case.
For `Clc1ccc(-c2c3c(nn2-c2ccccn2)CCc2ccccc2-3)cc1Cl`, the GI50 was more than 100 µM in the assay on A498 renal; 50.2 µM in the assay with HOP-62 NSCLC; 47.9 µM in the assay on MALME-3M melanoma; 73.7 µM in the assay on MDA-MB-231 breast; more than 100 µM with MDA-MB-435; more than 100 µM in the assay on SF-268 CNS. The GI50 in the assay with SK-MEL-28 melanoma and with UO-31 renal was more than 100 µM each time. Also, the TGI in the assay on A498 renal, in the assay on HOP-62 NSCLC, with MALME-3M melanoma, in the assay on MDA-MB-231 breast, in the assay on MDA-MB-435 and in the assay on SF-268 CNS was more than 100 µM in each case. In addition, the TGI with SK-MEL-28 melanoma and in the assay with UO-31 renal was more than 100 µM in each case.
For the molecule `COC(=O)c1cc(O)c2cc3c(cc2c1-c1cc(OC)c(OC)c(OC)c1)OCO3`, the GI50 in the assay with A498 renal was 0.494 µM; in the assay on HOP-62 NSCLC it was 1.79 µM; in the assay on MALME-3M melanoma, 0.815 µM; with MDA-MB-231 breast it was 1.5 µM; in the assay on MDA-MB-435, 0.277 µM; in the assay on SF-268 CNS, 2.94 µM. In addition, the figures for the GI50 in the assay on SK-MEL-28 melanoma and in the assay on UO-31 renal were 5.34 µM and 4.92 µM, respectively. For the same molecule, the TGI in the assay with A498 renal was more than 100 µM; in the assay with HOP-62 NSCLC, 18.4 µM; in the assay on MALME-3M melanoma, more than 100 µM; in the assay on MDA-MB-231 breast, more than 100 µM; in the assay on MDA-MB-435, 1.12 µM; with SF-268 CNS it was more than 100 µM. Besides, the TGI in the assay with SK-MEL-28 melanoma and in the assay on UO-31 renal was more than 100 µM each time.
As for `CC(C)=CCC/C(C)=C/CC/C(C)=C/CSc1ccccc1C(=O)O`, the GI50 is 21.3 µM with A498 renal; 25.6 µM with MALME-3M melanoma; 28.3 µM in the assay on MDA-MB-231 breast; 27.4 µM in the assay on MDA-MB-435; 18.5 µM with SF-268 CNS; 25.7 µM in the assay on SK-MEL-28 melanoma. Moreover, the GI50 with UO-31 renal is 17.7 µM. Also, the TGI was 54.6 µM and 56.7 µM in the assay with A498 renal; 35.2 µM and 30.6 µM in the assay on HOP-62 NSCLC; 66.2 µM in the assay with MALME-3M melanoma; 61.7 µM and 55.8 µM in the assay on MDA-MB-231 breast; 73.6 µM and 55.5 µM in the assay with MDA-MB-435; 35.7 µM and 32.6 µM in the assay with SF-268 CNS. Further, the TGI is 62 µM and 54.3 µM with SK-MEL-28 melanoma; 37.1 µM in the assay on UO-31 renal.
With `CCOC(=O)c1cc2c(cc1Cl)SC(N(c1ccc(OC)cc1)S(=O)(=O)c1ccc(Cl)cc1)=NS2(=O)=O`, the GI50 with A498 renal is 80.8 µM; in the assay on HOP-62 NSCLC, more than 100 µM; with MALME-3M melanoma it was 28.1 µM; in the assay with MDA-MB-231 breast, 47 µM; in the assay with MDA-MB-435 it was 22.1 µM; with SF-268 CNS, 23.5 µM. Further, the GI50 was 20.8 µM with SK-MEL-28 melanoma and 32 µM in the assay with UO-31 renal. The TGI with A498 renal was more than 100 µM; in the assay with HOP-62 NSCLC it was more than 100 µM; in the assay with MALME-3M melanoma, more than 100 µM; in the assay on MDA-MB-231 breast it was more than 100 µM; in the assay on MDA-MB-435, 57 µM; with SF-268 CNS, 67.6 µM. Further, the TGI with SK-MEL-28 melanoma was 59.9 µM; in the assay on UO-31 renal it was more than 100 µM.
`[N-]=[N+]=NC(c1cn(C2CC(O)C(CO)O2)c(=O)[nH]c1=O)C(Cl)I` (centres undefined): the TGI in the assay with A498 renal, with HOP-62 NSCLC, in the assay on MDA-MB-231 breast, with MDA-MB-435, with SF-268 CNS and in the assay with SK-MEL-28 melanoma was more than 100 µM each time. Further, the TGI in the assay with UO-31 renal is more than 100 µM.
On to `CCN(CC)CC(O)CNc1c2ccc([N+](=O)[O-])cc2nc2cc(OC)c(OC)cc12` (centres undefined), for which the GI50 in the assay on A498 renal is 1.36 µM; with MALME-3M melanoma, 0.249 µM; in the assay with MDA-MB-231 breast it was 0.244 µM; in the assay on MDA-MB-435, 0.374 µM; in the assay on SF-268 CNS it was 0.293 µM; in the assay on SK-MEL-28 melanoma it was 0.47 µM. Also, in the assay on UO-31 renal, the GI50 was 2.21 µM. For the same molecule, the TGI with A498 renal turned out to be 3.08 µM; in the assay on MALME-3M melanoma it was 0.573 µM; with MDA-MB-231 breast, 0.883 µM; in the assay with MDA-MB-435 it was 1.42 µM; with SF-268 CNS it was 1.34 µM; in the assay on SK-MEL-28 melanoma it was 1.93 µM. The molecule also returned a TGI in the assay on UO-31 renal of 12.9 µM.
For the molecule `Cc1ccc(/C(O)=C/C(=O)C(=O)NC23CC4CC(CC(C4)C2)C3)cc1`, the TGI in the assay with HOP-62 NSCLC, in the assay with MALME-3M melanoma, in the assay with MDA-MB-231 breast, in the assay on MDA-MB-435, in the assay on SF-268 CNS and with SK-MEL-28 melanoma was more than 10 µM each time.
For `COc1cc(C2SCC(=O)N2c2ncc(C)s2)cc(OC)c1OC` (centres undefined), the GI50 is 0.366 µM in the assay with A498 renal; 2.91 µM in the assay with MDA-MB-435; more than 50 µM in the assay on SF-268 CNS; more than 50 µM in the assay on SK-MEL-28 melanoma; more than 50 µM in the assay on UO-31 renal. Further, the TGI with A498 renal is more than 50 µM; in the assay with MDA-MB-435, 24.9 µM; in the assay with SF-268 CNS it was more than 50 µM; in the assay with SK-MEL-28 melanoma, more than 50 µM; with UO-31 renal, more than 50 µM.
Regarding `Cc1cc(Cc2cc(C)c(NC(=O)C(=O)C3CCC4=C(SC5C=CC=CC5N4)C3=O)c(C(C)C)c2)cc(C(C)C)c1NC(=O)C(=O)C1CCC2=C(SC3C=CC=CC3N2)C1=O` (centres undefined), the TGI in the assay on A498 renal, with HOP-62 NSCLC, in the assay with MDA-MB-231 breast, with MDA-MB-435, in the assay with SF-268 CNS and in the assay with SK-MEL-28 melanoma was more than 100 µM in each case. Further, the TGI in the assay with UO-31 renal is more than 100 µM.
Consider `CO/N=C(\C)c1ccc(Nc2cc(-c3ccccc3)nc3ccc(OC)cc23)cc1`, for which the GI50 with MALME-3M melanoma was 1.78 µM; in the assay with MDA-MB-231 breast it was 1.23 µM; in the assay on MDA-MB-435 it was 1.76 µM; in the assay on SF-268 CNS, 10.2 µM; in the assay with SK-MEL-28 melanoma it was 29.4 µM; in the assay with UO-31 renal it was 5.19 µM. The TGI is 4.85 µM in the assay on MALME-3M melanoma; 3.24 µM in the assay on MDA-MB-231 breast; 3.46 µM in the assay with MDA-MB-435; 28.8 µM in the assay on SF-268 CNS; more than 100 µM in the assay on SK-MEL-28 melanoma; more than 100 µM in the assay with UO-31 renal.
On to `COc1ccc(C2SCC(=O)N2NC(=O)c2ccc(NC(C)=O)cc2)c(OC)c1` (centres undefined), for which the TGI in the assay on A498 renal, in the assay with HOP-62 NSCLC, with MDA-MB-231 breast, in the assay with MDA-MB-435, in the assay with SF-268 CNS and in the assay with SK-MEL-28 melanoma was more than 100 µM each time. Further, in the assay on UO-31 renal, the TGI is more than 100 µM.
`O=C(Nc1ccc(Cl)c(Cl)c1)Nc1c(Oc2ccc(Cl)c(Cl)c2)ccc(Cl)c1S(=O)(=O)O`: the GI50 was 1.53 µM in the assay on A498 renal; 1.98 µM in the assay with MDA-MB-231 breast; 3.82 µM in the assay on SF-268 CNS; 4.05 µM in the assay with SK-MEL-28 melanoma; 3.13 µM in the assay on UO-31 renal. The TGI is 6.26 µM with A498 renal; 66.8 µM in the assay on MDA-MB-231 breast; more than 100 µM in the assay with SF-268 CNS; more than 100 µM in the assay on SK-MEL-28 melanoma; more than 100 µM in the assay on UO-31 renal.
Turning to `COc1cc(C(=O)N2CCN(c3ncnc4ccccc34)CC2)c(N)cc1OCc1ccccc1`, the GI50 in the assay on A498 renal was 5.47 µM; in the assay on MALME-3M melanoma, 13.7 µM; with MDA-MB-231 breast it was 13.9 µM; in the assay on MDA-MB-435, 13.1 µM; in the assay with SF-268 CNS it was 14.1 µM; with SK-MEL-28 melanoma it was 16.5 µM. For the same molecule, in the assay on UO-31 renal, the GI50 is 12 µM. The TGI in the assay on A498 renal was found to be 19.2 µM; with MALME-3M melanoma it was 30.4 µM; in the assay with MDA-MB-231 breast, 35.3 µM; in the assay with MDA-MB-435, 27.4 µM; in the assay with SF-268 CNS, 30.1 µM; in the assay with SK-MEL-28 melanoma it was 30.5 µM. This molecule came in with a TGI with UO-31 renal of 26.5 µM.
In the case of `Oc1ccc(C(c2ccc(O)cc2)c2ccc(O)cc2)cc1`, the TGI in the assay with A498 renal was 34.5 µM; in the assay with MALME-3M melanoma, 44 µM; in the assay with MDA-MB-231 breast, 41.8 µM; with MDA-MB-435, 46.1 µM; in the assay on SF-268 CNS it was more than 100 µM; with SK-MEL-28 melanoma it was 45 µM. For the same molecule, in the assay with UO-31 renal, the TGI turned out to be 44.6 µM.
